Each structure is given as a SMILES string. ≈ marks a conversion by molar mass, not a printed value. Where two headings read alike, the source gives them in different places.

This is an account of results in publication PMC6838151 (Scientific Reports, 2019).

One data set concerns S. cerevisiae WT (W303). Nature of the data set: MIC50 growth inhibition, S. cerevisiae wt W303, 48 h. Type of data set: cell-based. As to conditions: Saccharomyces cerevisiae. From the text:
(§1) The following strains of S. cerevisiae were used in this study: BY4741 (wild type towards erg6Δ, ACC Y00000; MATa; his3Δ1; leu2Δ0; met15Δ0; ura3Δ0), erg6Δ (ACC Y00568; BY4741 isogenic with YML008c::kanMX4), W303 (wild type towards AD1-8; MATα; leu2-3,112 trp1-1 can1-100 ura3-1 ade2-1 his3-11,15 AD1-8 (W303 isogenic with pdr1-3, ura3, his1, yor1∆::hisG, snq2∆::hisG, pdr5∆::hisG, pdr10∆::hisG, pdr11∆:: hisG, ycf1∆::hisG, pdr3∆::hisG, pdr15∆::hisG). BY4741 and erg6Δ were acquired from EUROSCARF, Frankfurt, Germany; W303 and AD1-8 were kind gifts from Prof. A. Goffeau, Chaire Internationale Blaise Pascal, Lab. Genet. Mol., École Normale Supérieure, Paris, and Prof. M. Ghislain, Université Catholique de Louvain, Faculté des sciences Agronomiques, Louvain-la-Neuve, Belgium. Visible turbid overnight cultures of S. cerevisiae strains were prepared and diluted to A600 ≈ 0.1 in fresh Yeast Extract – Peptone - Dextrose (YPD) medium. […] The yeast cultures were statically incubated at 30 °C for 48 hours with compounds[88]. The dose-response curves were analysed with GraphPad Prism 5 software (San Diego, USA) or a microplate reader ASYS UVM (Biogenet). All values presented are the mean of at least three independent experiments.

For another data set, the system named is S. cerevisiae AD1-8. Kind of data set: MIC50 growth inhibition, S. cerevisiae AD1-8 (lacks major ABC transporters), 48 h. It is filed as cell-based, Saccharomyces cerevisiae. The conditions noted are these: for MIC50: Saccharomyces cerevisiae.
From the text: as §1

The subject of another data set is C. albicans B4. Kind of data set: microbe, parasite or virus in culture. It is filed as cell-based, Candida albicans. As to conditions: for times higher resistance of B4 than B3: B4 vs B3; for MIC50: Candida albicans, B4, 48 h. From the text: (§2) The C. albicans CAF2-1 (Genotype/Description: ura3Δ::imm434/URA3[89]) and DSY1050 (Genotype/Description: cdr1Δ::hisG/cdr1Δ::hisG/cdr2Δ::hisG/cdr2Δ::hisG/mdr1Δ::hisG-URA3-hisG/mdr1Δ::hisG[90]) strains used in this study were generous gift from D. Sanglard (Lausanne, Switzerland)[91],[92] whereas C. albicans B3 and Gu4 (Genotype/Description: clinical isolates fluconazole sensitive)[93]), B4 (Genotype/Description: Clinical isolate fluconazole resistant due to the overexpression of MDR1[93]) and Gu5 (Genotype/Description: Clinical isolate fluconazole resistant due to the overexpression of CDR1 and CDR2[93]) were a generous gift from prof. S. Milewski (Gdańsk, Poland)[94] and prof. J. Morschhäuser (Wurzburg, Germany)[93]. All strains were grown at 37 °C on Sabouraud medium (Biomerieux).
(§3) The antifungal activity was determined on the 96-well polystyrene microtiter plates (Sarstedt) according to Clinical and Laboratory Standards Institute M27-A3[95]. […] The compounds were dissolved in DMSO (10 mM) and then serially diluted in RPMI-1640 (ThermoFisher) medium to obtain the final concentration range. Inocula of all strains were prepared as suspensions with turbidity of 0.5 McFarland standard in sterile 0.85% saline and diluted in RPMI-1640. After inoculation, each well contained appr. 5 × 10^2 CFU/mL. The plates were cultivated for 48 h at 37 °C. Optical density was measured at A490nm using a microplate reader ASYS UVM 340 (Biogenet).

The subject of the next data set is C. albicans CAF2-1. Kind of data set: microbe, parasite or virus in culture. It is filed as cell-based, Candida albicans. The conditions noted are these: for times more active than Flc: C. albicans CAF2-1, MIC50 ratio; for MIC50: Candida albicans, CAF21, 48 h.
From the text: as §2, §3

The next data set concerns C. albicans DSY1050. Kind of data set: microbe, parasite or virus in culture. Type of data set: cell-based, Candida albicans. The conditions noted are these: for MIC50: Candida albicans, DSY1050, 48 h; for times more susceptible than parental strain (CAF2-1): DSY1050 vs CAF2-1.
From the text: as §2, §3

The next data set relates to C. albicans Gu5. Kind of data set: microbe, parasite or virus in culture. The conditions noted are these: for times more resistant than Gu4 strain: Gu5 vs Gu4. Type of data set: cell-based, Candida albicans.
From the text: as §2, §3

Another data set deals with C. albicans B3. Kind of data set: microbe, parasite or virus in culture. Type of data set: cell-based. The conditions noted are these: Candida albicans.
From the text: as §2, §3

Another data set deals with C. albicans Gu4. Nature of the data set: microbe, parasite or virus in culture. It is filed as cell-based. As to conditions: Candida albicans, GU4, 48 h.
From the text: as §2, §3

Data set [1] in a line: Cytotoxicity IC50, TOX-8 resazurin assay, hASCs, 24 h. As to conditions: female, human. Type of data set: cell-based, human. Here is the method:
Human Adipose Tissue-derived Stem Cells (hASCs) were isolated from subcutaneous adipose tissue fragments harvested from non-diabetic female donors (age range 33–38, n = 2) during standard surgical procedure of total hip arthroplasty. Immediately after collection of tissue, the samples were placed in sterile tissue-transport medium (Hank’s Balanced Salt Solution (HBSS) supplemented with 1% Penicillin/Streptomycin/Amphotericin B solution (P/S/A). Mesenchymal stromal cell isolation was performed using enzymatic digestion of extracellular matrix with collagenase type I. Before digestion, tissue specimens were washed twice with HBSS and incubated in collagenase type I solution (1 mg/mL) at 37 °C for 40 min. The digest was subsequently centrifuged (1200 × g; 10 minutes; room temperature) and the cell pellet was resuspended in Dulbecco’s modified Eagle’s medium (DMEM) with Nutrient F-12 Ham, 10% of Fetal Bovine Serum (FBS), and 1% of P/S/A, transferred to a culture flask, and kept in culture under optimal conditions (37 °C in a humidified atmosphere of 5% CO2). The medium was refreshed every 2–3 days. At 80–90% confluence, the cells were passaged using trypsin solution (TrypLE Express, Life Technologies, California, USA). At passage 3, hASCs were collected and cellular phenotype was confirmed by the high expression of markers CD44, CD29, CD73, CD105 and low expression of CD45. Moreover, the trilineage differentiation capacity of ASCs was confirmed as previously described.
The IC50 values were determined using in vitro Toxicology TOX-8 Assay Kit (resazurin based) according to the manufacturer’s protocol. For this assay, cells were seeded in a 96-well plate at a density of 5 × 10^3 cells/well. The cells were pre-incubated in drug-free complete medium for 24 h before adding various concentrations of the compounds to be investigated. Stock solutions of the compounds were prepared in DMSO following serial dilutions in DMEM with Nutrient F-12 Ham complete medium. The cells exposure period was 24 h. After that time media were replaced with 10% v/v resazurin dye solution in fresh complete culture medium. Incubation was carried out for 2 h at 37 °C in the CO2 incubator. Reduction of the dye was measured spectrophotometrically at 600 nm and 690 nm reference wavelength (Epoch, Biotek). Absorbance measurements allowed the determination of viable treated cells relative to untreated controls using the inflection point of a dose-response graph. IC50 values were estimated as duplicates of triplicate readings in two independent experiments.

The mark [2] stands for this setting: AD18, S. cerevisiae AD1-8, YPD, 30 °C, 48 h, read-out: MIC50.
The mark [3] stands for this setting: C. albicans B3, RPMI-1640, 37 °C, 48 h, read-out: MIC50.
Where [4] appears, read: S. cerevisiae WT (W303), YPD, 30 °C, read-out: MIC50.
Setting [5] is: hASCs, TOX-8 assay, 24 h, read-out: IC50 (cytotoxicity, hASCs viability).
Setting [6] is: C. albicans Gu5, RPMI-1640, 37 °C, 48 h.

Turning to `O=P(CN1CCN(c2ccc(OC[C@H]3CO[C@](Cn4ccnc4)(c4ccc(Cl)cc4Cl)O3)cc2)CC1)(c1ccccc1)c1ccccc1` (racemic) [KeOP, Ph2P(O)CH2-Ke], the MIC50 against S. cerevisiae WT (W303) turned out to be 3.13 µM (≈ 2.2 µg/mL); with S. cerevisiae AD1-8 (setting [2]), 0.05 µM (≈ 0.0352 µg/mL); in the data set on C. albicans B4, 3.13 µM (≈ 2.2 µg/mL); in the data set with C. albicans CAF2-1, 0.78 µM (≈ 0.549 µg/mL); in the data set with C. albicans DSY1050, 0.2 µM (≈ 0.141 µg/mL); in the data set with C. albicans Gu5 (Candida albicans, GU5, 48 h) it was 25 µM (≈ 17.6 µg/mL). Further, the MIC50 in the data set on C. albicans B3 (setting [3]) amounted to 1.56 µM (≈ 1.1 µg/mL); with C. albicans Gu4, 12.5 µM (≈ 8.8 µg/mL). Moreover, in the data set on C. albicans B4, the “times higher resistance of B4 than B3” value was “two”. Besides, the “times more active than Flc” value in the data set with C. albicans CAF2-1 is reported as “eight”. Also, the “times more susceptible than parental strain (CAF2-1)” value with C. albicans DSY1050 is given as “four”. Further, the “times more resistant than Gu4 strain” value with C. albicans Gu5 was “two”.

For `Clc1ccc([C@@]2(Cn3ccnc3)OC[C@H](COc3ccc(N4CCN(CP(c5ccccc5)c5ccccc5)CC4)cc3)O2)c(Cl)c1` (racemic) [KeP, Ph2PCH2-Ke], the MIC50 with S. cerevisiae WT (W303) (setting [4]) was found to be 12.5 µM (≈ 8.6 µg/mL); with S. cerevisiae AD1-8 (setting [2]), 0.2 µM (≈ 0.138 µg/mL); against C. albicans B4 it was 3.13 µM (≈ 2.15 µg/mL); in the data set on C. albicans CAF2-1, 3.13 µM (≈ 2.15 µg/mL); against C. albicans DSY1050, 0.78 µM (≈ 0.536 µg/mL); in the data set on C. albicans Gu5 (Candida albicans, GU5, 48 h), 50 µM (≈ 34.4 µg/mL). For the same compound, the MIC50 with C. albicans B3 (setting [3]) was found to be 0.39 µM (≈ 0.268 µg/mL); against C. albicans Gu4, 3.13 µM (≈ 2.15 µg/mL). Moreover, the “times higher resistance of B4 than B3” value in the data set with C. albicans B4 was “eight”. In addition, the “times more active than Flc” value with C. albicans CAF2-1 is listed as “two”. Further, in the data set with C. albicans DSY1050, the “times more susceptible than parental strain (CAF2-1)” value is “four”. Moreover, the “times more resistant than Gu4 strain” value in the data set on C. albicans Gu5 was “sixteen”. The same compound came in with an IC50 at 24 h in data set [1] (IC50 (cytotoxicity, hASCs viability)) of 37.6 µM.

Regarding `CC(=O)N1CCN(c2ccc(OCC3COC(Cn4ccnc4)(c4ccc(Cl)cc4Cl)O3)cc2)CC1` (stereo not drawn) [Ke, ketoconazole, reference compound], the MIC50 was determined as 6.25 µM (≈ 3.32 µg/mL) in the data set on S. cerevisiae WT (W303) (setting [4]); 0.02 µM (≈ 0.0106 µg/mL) against S. cerevisiae AD1-8 (AD18, 48 h); 0.39 µM (≈ 0.207 µg/mL) in the data set on C. albicans B4; 0.05 µM (≈ 0.0266 µg/mL) in the data set on C. albicans CAF2-1; 0.02 µM (≈ 0.0106 µg/mL) with C. albicans DSY1050; 50 µM (≈ 26.6 µg/mL) in the data set with C. albicans Gu5 (Candida albicans, GU5, 48 h). Moreover, the MIC50 amounted to 0.05 µM (≈ 0.0266 µg/mL) in the data set on C. albicans B3 (B3, 48 h) and 25 µM (≈ 13.3 µg/mL) in the data set with C. albicans Gu4. For the same compound, in [1] (setting [5]), the IC50 at 24 h was 121 µM.

Regarding `S=P(CN1CCN(c2ccc(OC[C@H]3CO[C@](Cn4ccnc4)(c4ccc(Cl)cc4Cl)O3)cc2)CC1)(c1ccccc1)c1ccccc1` [KeSP, Ph2P(S)CH2-Ke], the MIC50 was over 200 µM with S. cerevisiae WT (W303); 0.2 µM (≈ 0.144 µg/mL) in the data set on S. cerevisiae AD1-8 (AD18, 48 h); 3.13 µM (≈ 2.25 µg/mL) against C. albicans B4; 3.13 µM (≈ 2.25 µg/mL) with C. albicans CAF2-1; 0.39 µM (≈ 0.281 µg/mL) in the data set on C. albicans DSY1050; “no inhibitory effect” against C. albicans Gu5 (setting [6]). Further, the MIC50 against C. albicans Gu5 (Candida albicans, GU5, 48 h) is over 200 µM; in the data set with C. albicans B3 (setting [3]), 1.56 µM (≈ 1.12 µg/mL); against C. albicans Gu4, 50 µM (≈ 36 µg/mL). In addition, the “MIC50 against AD1-8 lower than against W303 cells” value in the data set on S. cerevisiae AD1-8 (AD1-8 vs W303) is recorded as “more than 3 orders of magnitude”. Also, in the data set on C. albicans B4, the “times higher resistance of B4 than B3” value is “two”. Moreover, the “times more active than Flc” value with C. albicans CAF2-1 was “two”. In the data set on C. albicans DSY1050, the “times more susceptible than parental strain (CAF2-1)” value is listed as “eight”.

For the compound `Clc1ccc([C@@]2(Cn3ccnc3)OC[C@H](COc3ccc(N4CCN(CP(=[Se])(c5ccccc5)c5ccccc5)CC4)cc3)O2)c(Cl)c1` [KeSeP, Ph2P(Se)CH2-Ke], the MIC50 with S. cerevisiae WT (W303) (setting [4]) is 50 µM (≈ 38.3 µg/mL); in the data set on S. cerevisiae AD1-8 (setting [2]) it was 0.2 µM (≈ 0.153 µg/mL); with C. albicans B4, 6.25 µM (≈ 4.79 µg/mL); against C. albicans CAF2-1 it was 3.13 µM (≈ 2.4 µg/mL); in the data set on C. albicans DSY1050 it was 0.78 µM (≈ 0.598 µg/mL); in the data set on C. albicans Gu5 (setting [6]) it was “no inhibitory effect”. The MIC50 against C. albicans Gu5 (Candida albicans, GU5, 48 h) is over 200 µM; with C. albicans B3 (setting [3]), 3.13 µM (≈ 2.4 µg/mL); against C. albicans Gu4 it was 12.5 µM (≈ 9.58 µg/mL). For the same compound, in the data set with C. albicans B4, the “times higher resistance of B4 than B3” value was “two”. The “times more active than Flc” value in the data set with C. albicans CAF2-1 is “two”. For the same compound, in the data set with C. albicans DSY1050, the “times more susceptible than parental strain (CAF2-1)” value is “four”. In addition, the IC50 at 24 h in [1] (setting [5]) was 110 µM.
